Patent US9938495B2, “Composition comprising cryopreservation medium and stem cells obtained by slow-freezing” (FERTIPRO N.V., priority 2013, dated 2018)

Legend:
[1] = system: CT5.3-hTERT colon cancer-associated fibroblasts; experiment: TGF-β-mediated growth inhibition in CT5.3-hTERT cells after cryopreservation (SRB assay, cell counter); format: cell-based; conditions: control group (routine culture, not cryopreserved); TGF-β 1 ng/ml for 1 week; n=3
Experimental: Immortalized CT5.3-hTERT colon cancer-associated fibroblasts have been used to evaluate cellular function following cryopreservation with two different cryopreservation media: • 1) a 10:90 (% V/V) mixture of dimethylsulfoxide (DMSO) and fetal bovine serum (FBS), as known in the art; and • 2) a propylene glycol-based DMSO-free cryopreservation medium as described in Table 1 (hereafter referred to as “PCM”).
Briefly, early passage cells were cultured in routine culture medium (Dulbecco's Modified Eagle Medium (DMEM) containing 10% FBS, antibiotics and an antifungal product) at 37° C. in a humidified atmosphere with 5% CO2. Semi-confluent cells were harvested by trypsinization and cell concentration was assessed using the trypan blue exclusion method. […]
The cells of each group were treated with recombinant TGF-β (1 ng/ml) for 1 week. At the end of the experiment, cell concentration was measured using the sulforhodamine B (SRB) assay and an automated cell counter (trypan blue exclusion), respectively. […] Protein content was assessed by the bicinchoninic acid (BCA) test and concentrations were normalized, thus allowing for equal protein load for Western blot analysis. Expression of α-SMA was evaluated using a monoclonal HRP-coupled antibody, directed against this myofibroblast marker. […]

[2] = system: (MSC)-hTERT mesenchymal stem cells; experiment: Cryopreservation tests on (MSC)-hTERT mesenchymal stem cells with TGF-β treatment; format: cell-based
Source text: It is noted that further cryopreservation tests on (MSC)-hTERT mesenchymal stem cells using the above-mentioned DMSO/FBS and PCM also show similar results for both cryopreservation media.

TGF-β
inhibition of cell proliferation by TGF-β [1]: 79.84+/−4.43 | effect of TGF-β on α-SMA expression [2]: not to alter α-SMA expression
